Measured values taken from patent US20230321462A1, “Method for Improving Olfactory Sensitivity” (Kao Corporation, priority 2019, published 2023).
One block for each molecule: values may come before it.

Experiments:
[1] = target: T1, OR4S2 (Homo sapiens, UniProt Q8NH73); test: Luciferase reporter gene assay, response of OR4S2 to odor substances; format: cell-based; settings: OR4S2-expressing HEK293 cells, luciferase fold increase, FIG. 4, 5, 9
T1 construct: Flag-Rho tag (N); expressed in transfected cells; host or cells: HEK293
T1 sequence (Q8NH73 1-311): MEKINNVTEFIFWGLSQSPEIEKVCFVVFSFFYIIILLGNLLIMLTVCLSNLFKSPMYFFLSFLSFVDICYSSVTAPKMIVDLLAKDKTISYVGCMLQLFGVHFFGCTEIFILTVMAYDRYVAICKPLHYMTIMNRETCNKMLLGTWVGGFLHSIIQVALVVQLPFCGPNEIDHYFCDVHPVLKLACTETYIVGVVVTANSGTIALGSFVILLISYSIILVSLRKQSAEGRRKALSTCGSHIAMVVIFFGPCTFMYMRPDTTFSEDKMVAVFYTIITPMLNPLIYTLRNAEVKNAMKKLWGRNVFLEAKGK
Text: (§1) Genes encoding the human olfactory receptors OR10G4, OR4S2, OR5P3, OR2W1, and OR1A1 (which are as set forth in SEQ ID NOs: 1, 2, 3, 4, and 5, respectively) were cloned. Each gene was cloned by PCR using human genomic DNA female (G1521: Promega) as a template, based on the sequence information registered in GenBank. Each gene amplified by PCR was incorporated into a pENTR vector (Invitrogen) in accordance with the manual, and by utilizing the NotI/AscI site present on the pENTR vector, it was recombined to the NotI/AscI site produced downstream of a Flag-Rho tag sequence on a pME18S vector.
HEK293 cells in which any one of the above-described human olfactory receptors was allowed to express, were produced. A reaction solution having the composition shown in Table 2 was prepared, and was then left to stand in a clean bench for 15 minutes. The resultant was added into each well of a 96-well plate (BD). […]
(§2) An olfactory receptor expressed in HEK293 cells conjugated with Gαs existing in the cells to activate adenylate cyclase, so as to increase the amount of cAMP in the cells. For the receptor response measurement in the present study, a luciferase reporter gene assay was applied, and an increase in the intracellular amount of cAMP was monitored as a luminescence value derived from a firefly luciferase gene (fluc2P-CRE-hygro). […]
The medium was removed from the culture produced in the above 3), and an odor substance solution was then added thereto. […] The activity of luciferase was measured using Dual-Glo™ luciferase assay system (Promega) in accordance with the operating manual of the product. The value fLuc/hRluc was calculated by dividing the value of luminescence derived from firefly luciferase by the value of luminescence derived from Renilla luciferase. A fold increase was calculated by dividing the value fLuc/hRluc induced by cells stimulated with an odor substance, by the value fLuc/hRluc induced by cells not stimulated with an odor substance, and the obtained value was used as an indicator of response intensity. […]

[2] = tested on: olfactory sensitivity; test: Sensory test: detection threshold concentration of odor substances before and after oral care; format: in vivo, human; settings: for olfactory sensitivity (detection threshold concentration): 1 hour after oral care vs before oral care
Method: Olfactory sensitivity before and after oral care was evaluated according to a sensory test. The experimental scheme is shown in FIG. 6A, and is also described in detail below. The sensory test was carried out with 14 subjects. On the test day, the subjects were prohibited to eat and drink anything after getting up, and were also prohibited to do oral care including brushing of teeth. The test was started between 8:00 am to 9:30 am. First, exhaled breath was collected from the subjects. Subsequently, the detection threshold concentration of each odor substance was measured according to the sensory test. Thereafter, the subjects ate designated breakfast, and then performed oral care (the brushing of teeth using commercially available toothbrush and dentifrice for 5 minutes, and then, the washing of the mouth using commercially available mouth wash for 30 seconds). At individual time points of 10 minutes and 1 hour after the oral care, exhaled breath was collected from the subjects and the detection threshold concentration of each odor substance was measured.
1 mL of an odor substance solution placed in a vial bottle (Maruemu, No. 2) was used as an odor sample. As such odor substance solutions, a 20-step 2-fold dilution series was prepared regarding each of muscone, indole, and furfuryl mercaptan (highest concentrations: 1000 ppm, 1 mM, and 10 ppb, respectively). Mineral oil (Sigma-Aldrich) was used as a solvent in all cases. As a blank, a vial containing 1 mL of mineral oil was used.
A single test was carried out on two types of odor substance among muscone, indole, and furfuryl mercaptan. […] The test participants smelled the odors contained in the vials and tried to choose the vial containing an odor solution. The test was started with an odor sample having the third low concentration. When the subject’s selection was incorrect or the subject could not choose the vial even once, the same trial was carried out using an odor sample having one step higher concentration. When the subject’ selection was correct two times in a row, the same trial was carried out using an odor sample having one step lower concentration. When the subject’ selection was correct two times in a row using an odor sample with a new concentration, the subject was tested using an odor sample having further one step lower concentration. When the subject could not choose the correct vial even once, the subject was tested using an odor sample having one step higher concentration. Switching from a high concentration to a low concentration, and from a low concentration to a high concentration, was recorded 7 times in total, and the mean value of the concentrations measured 4 times in the second half was defined as a detection threshold concentration. The detection threshold concentrations of each odor substance before and after oral care were compared with each other according to the Wilcoxon signed-rank test, and the p value was calculated. The statistical analysis was carried out using R Software (Ver.3.6.0).

[3] = target: T2, OR10G4 (Homo sapiens, UniProt Q8NGN3); test: Luciferase reporter gene assay, response of OR10G4 to odor substances; format: cell-based; settings: OR10G4-expressing HEK293 cells, luciferase fold increase, FIG. 1
T2 construct: Flag-Rho tag (N); expressed in transfected cells; host or cells: HEK293
T2 sequence (Q8NGN3 1-311): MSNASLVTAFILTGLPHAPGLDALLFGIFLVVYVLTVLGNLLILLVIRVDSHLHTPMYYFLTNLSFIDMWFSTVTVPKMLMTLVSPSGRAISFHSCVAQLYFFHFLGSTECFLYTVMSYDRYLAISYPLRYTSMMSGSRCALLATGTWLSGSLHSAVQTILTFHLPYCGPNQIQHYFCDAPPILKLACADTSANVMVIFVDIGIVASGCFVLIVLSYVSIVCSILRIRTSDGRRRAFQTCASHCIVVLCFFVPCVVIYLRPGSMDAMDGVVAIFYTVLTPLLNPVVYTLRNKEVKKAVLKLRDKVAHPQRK
Text: as §1, with “vector. […]” for “vector.”
as §2
The medium was removed from the culture produced in the above 3), and an odor substance solution was then added thereto. […] The activity of luciferase was measured using Dual-Glo™ luciferase assay system (Promega) in accordance with the operating manual of the product. […]

[4] = target: T3, OR5AN1 (Homo sapiens, UniProt Q8NGI8); settings: Patent Literature 1; cited from earlier work
T3 sequence (Q8NGI8 1-311): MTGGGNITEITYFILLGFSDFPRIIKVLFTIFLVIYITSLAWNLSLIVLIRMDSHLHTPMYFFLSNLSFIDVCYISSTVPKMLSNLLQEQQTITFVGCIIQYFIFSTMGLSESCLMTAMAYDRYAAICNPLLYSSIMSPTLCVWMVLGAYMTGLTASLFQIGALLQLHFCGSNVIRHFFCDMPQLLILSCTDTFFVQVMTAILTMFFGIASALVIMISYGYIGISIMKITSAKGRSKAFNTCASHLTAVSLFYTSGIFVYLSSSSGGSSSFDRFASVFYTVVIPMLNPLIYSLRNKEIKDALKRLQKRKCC

[5] = tested on: olfactory sensitivity to 3M3SH; test: Sensory test: odor sensory intensity to 3M3SH with 3M3SH applied to armpit portions of clothes; format: in vivo, human; settings: fifteen minutes after application of 3M3SH onto the armpit portions, two subjects, FIG. 3
Method: 3M3SH was used as an underarm odor-causing substance. A sensory evaluation sample was prepared by adding one cotton ball (Hakujuji Co., Ltd., No. 10) into a 13.5-mL vial bottle (Maruemu No. 5), and then adding 10 µL of a 3M3SH solution with each diluted concentration thereto. For the 3M3SH solution, mineral oil (Sigma-Aldrich) was used as a solvent, and the concentrations of the solution were set to be 0 µM, 1 µM, 3 µM, 10 µM, 30 µM, 100 µM, and 300 µM.
The sensory test was carried out with two subjects. The subjects wore a commercially available white cloth (material: 65% polyester and 35% cotton). The subjects first smelled the above-described samples in the order from a low concentration sample to a high concentration sample, and odor sensory intensity which the subjects felt was then evaluated. The evaluation was carried out in 9 stages from “0: Not felt” to “4: Unbearably strongly felt,” at intervals of 0.5. Thereafter, the 3M3SH ethanol solution (3 µg/mL) was added in an amount of 10 µL each onto both of the armpit portions of each subject’ clothes (white clothes). Fifteen minutes after addition of this solution, the above-described sensory evaluation was carried out again. […]

Structure (SMILES): c1ccc2[nH]ccc2c1 [indole, Indole]
response of OR4S2 to odor substances [1]: activate OR4S2
detection threshold concentration relative to before oral care ([2]; 10 minutes after the oral care, FIG. 7B): 1/16
olfactory sensitivity (detection threshold concentration) ([2]; FIG. 7A): statistically significantly improved
detection threshold concentration relative to before oral care ([2]; 1 hour after the oral care, on average, FIG. 7A): ⅛

response of OR10G4 to odor substances [3]: activate OR10G4
Structure (SMILES): COc1ccccc1O [guaiacol, Guaiacol]

Structure (SMILES): CCOc1cc(C=O)ccc1O [ethyl vanillin, Ethyl vanillin]
response of OR10G4 to odor substances [3]: activate OR10G4

response of OR4S2 to odor substances [1]: is not activated by
Structure (SMILES): C[C@@H]1CCCCCCCCCCCCC(=O)C1 [muscone, Muscone]
olfactory sensitivity (detection threshold concentration) ([2]; FIG. 7A): no statistically significant difference
recognition by OR5AN1 [4]: recognized, mainly mediated by OR5AN1

Structure (SMILES): SCc1ccco1 [furfuryl mercaptan, Furfuryl mercaptan]
response of OR4S2 to odor substances [1]: is activated by
olfactory sensitivity (detection threshold concentration) ([2]; FIG. 7A): statistically significantly improved

Structure (SMILES): CCCC(C)(S)CCO (stereo not drawn) [3M3SH, 3-Methyl-3-sulfanylhexan-1-ol]
odor intensity of 3M3SH felt from the sample [5]: reduced
